Data published in ChEMBL document CHEMBL5678818, “Discovery of potent SOS1 inhibitors that block RAS activation via disruption of the RAS-SOS1 interaction” (Proc Natl Acad Sci U S A, 2019).

What was measured:
[1] = target: T1, MAP/microtubule affinity-regulating kinase 4 (Homo sapiens) (UniProt Q96L34); test: Inhibition of MARK4 (unknown origin) assessed as residual activity at 100 nM by KINOMEscan analysis relative to control
T1 sequence (whole entry): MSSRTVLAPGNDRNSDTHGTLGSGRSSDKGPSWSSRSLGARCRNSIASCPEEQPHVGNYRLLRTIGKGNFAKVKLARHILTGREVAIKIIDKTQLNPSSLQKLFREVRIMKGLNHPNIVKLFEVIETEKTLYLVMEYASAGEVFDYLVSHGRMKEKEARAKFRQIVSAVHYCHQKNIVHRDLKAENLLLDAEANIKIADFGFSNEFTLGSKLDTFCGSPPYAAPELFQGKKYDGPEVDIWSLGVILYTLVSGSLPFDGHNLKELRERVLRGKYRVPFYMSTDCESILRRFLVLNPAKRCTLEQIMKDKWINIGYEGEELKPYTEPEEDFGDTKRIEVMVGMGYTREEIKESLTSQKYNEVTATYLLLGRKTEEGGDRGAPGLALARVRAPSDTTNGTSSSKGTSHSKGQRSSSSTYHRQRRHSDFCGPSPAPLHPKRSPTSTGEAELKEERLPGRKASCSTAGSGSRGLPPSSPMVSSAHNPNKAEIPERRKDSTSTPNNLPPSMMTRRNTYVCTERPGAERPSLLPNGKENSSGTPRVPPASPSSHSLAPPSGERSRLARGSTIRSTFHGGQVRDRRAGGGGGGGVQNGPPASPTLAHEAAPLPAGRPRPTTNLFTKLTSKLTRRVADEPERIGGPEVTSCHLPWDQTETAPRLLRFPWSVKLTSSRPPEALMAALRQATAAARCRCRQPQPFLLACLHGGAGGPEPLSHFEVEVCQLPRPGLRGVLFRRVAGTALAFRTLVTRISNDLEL

[2] = target: Dual specificity protein kinase CLK1 (Homo sapiens) (UniProt P49759); test: Inhibition of CLK1 (unknown origin) assessed as residual activity at 100 nM by KINOMEscan analysis relative to control
[3] = target: MAP/microtubule affinity-regulating kinase 3 (Homo sapiens) (UniProt P27448); test: Inhibition of MARK3 (unknown origin) assessed as residual activity at 100 nM by KINOMEscan analysis relative to control
[4] = target: TGF-beta receptor type-2 (Homo sapiens) (UniProt P37173); test: Inhibition of TGFBR2 (unknown origin) assessed as residual activity at 100 nM by KINOMEscan analysis relative to control
[5] = target: MAP kinase-interacting serine/threonine-protein kinase 2 (Homo sapiens) (UniProt Q9HBH9); test: Inhibition of MKNK2 (unknown origin) assessed as residual activity at 100 nM by KINOMEscan analysis relative to control
[6] = target: Serine/threonine-protein kinase pim-2 (Homo sapiens) (UniProt Q9P1W9); test: Inhibition of PIM2 (unknown origin) assessed as residual activity at 100 nM by KINOMEscan analysis relative to control
[7] = target: Serine/threonine-protein kinase 38 (Homo sapiens) (UniProt Q15208); test: Inhibition of NDR1 (unknown origin) assessed as residual activity at 100 nM by KINOMEscan analysis relative to control
[8] = target: Phosphatidylinositol 4,5-bisphosphate 3-kinase catalytic subunit alpha isoform (Homo sapiens) (UniProt P42336); test: Inhibition of PIK3CA (unknown origin) assessed as residual activity at 100 nM by KINOMEscan analysis relative to control
[9] = target: T2, Serine/threonine-protein kinase BRSK1 (Homo sapiens) (UniProt Q8TDC3); test: Inhibition of BRSK1 (unknown origin) assessed as residual activity at 100 nM by KINOMEscan analysis relative to control
T2 sequence (whole entry): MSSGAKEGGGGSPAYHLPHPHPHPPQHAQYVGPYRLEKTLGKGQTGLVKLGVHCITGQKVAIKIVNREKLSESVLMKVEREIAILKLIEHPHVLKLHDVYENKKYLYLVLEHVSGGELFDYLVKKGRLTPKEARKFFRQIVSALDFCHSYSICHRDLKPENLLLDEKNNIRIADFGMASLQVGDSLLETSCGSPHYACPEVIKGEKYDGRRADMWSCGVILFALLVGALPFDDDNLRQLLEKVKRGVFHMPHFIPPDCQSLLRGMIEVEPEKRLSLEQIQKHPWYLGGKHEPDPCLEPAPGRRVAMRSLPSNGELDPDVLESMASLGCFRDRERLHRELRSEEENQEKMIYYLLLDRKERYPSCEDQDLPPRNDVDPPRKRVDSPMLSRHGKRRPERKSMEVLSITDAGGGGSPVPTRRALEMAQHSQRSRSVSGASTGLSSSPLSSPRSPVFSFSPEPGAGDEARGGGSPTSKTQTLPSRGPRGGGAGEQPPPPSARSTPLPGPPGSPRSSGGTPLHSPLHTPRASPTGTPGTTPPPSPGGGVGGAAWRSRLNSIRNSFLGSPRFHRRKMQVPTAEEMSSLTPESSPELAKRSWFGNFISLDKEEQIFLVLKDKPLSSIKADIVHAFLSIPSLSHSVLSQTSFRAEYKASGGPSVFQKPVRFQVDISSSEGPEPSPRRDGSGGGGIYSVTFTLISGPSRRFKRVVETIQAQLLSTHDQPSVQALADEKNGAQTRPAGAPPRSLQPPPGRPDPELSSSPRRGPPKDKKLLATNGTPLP

[10] = target: Atypical kinase COQ8A, mitochondrial (Homo sapiens) (UniProt Q8NI60); test: Inhibition of ADCK3 (unknown origin) assessed as residual activity at 100 nM by KINOMEscan analysis relative to control
[11] = target: Serine/threonine-protein kinase 16 (Homo sapiens) (UniProt O75716); test: Inhibition of STK16 (unknown origin) assessed as residual activity at 100 nM by KINOMEscan analysis relative to control
[12] = target: Protein-tyrosine kinase 6 (Homo sapiens) (UniProt Q13882); test: Inhibition of BRK (unknown origin) assessed as residual activity at 100 nM by KINOMEscan analysis relative to control
[13] = target: Calcium/calmodulin-dependent protein kinase type II subunit alpha (Homo sapiens) (UniProt Q9UQM7); test: Inhibition of CAMK2A (unknown origin) assessed as residual activity at 100 nM by KINOMEscan analysis relative to control
[14] = target: Cyclin-dependent kinase 7 (Homo sapiens) (UniProt P50613); test: Inhibition of CDK7 (unknown origin) assessed as residual activity at 100 nM by KINOMEscan analysis relative to control
[15] = target: Cyclin-dependent kinase 5 (Homo sapiens) (UniProt Q00535); test: Inhibition of CDK5 (unknown origin) assessed as residual activity at 100 nM by KINOMEscan analysis relative to control
Sequence of Cyclin-dependent kinase 5 (Homo sapiens) (Q00535 whole entry, looked up): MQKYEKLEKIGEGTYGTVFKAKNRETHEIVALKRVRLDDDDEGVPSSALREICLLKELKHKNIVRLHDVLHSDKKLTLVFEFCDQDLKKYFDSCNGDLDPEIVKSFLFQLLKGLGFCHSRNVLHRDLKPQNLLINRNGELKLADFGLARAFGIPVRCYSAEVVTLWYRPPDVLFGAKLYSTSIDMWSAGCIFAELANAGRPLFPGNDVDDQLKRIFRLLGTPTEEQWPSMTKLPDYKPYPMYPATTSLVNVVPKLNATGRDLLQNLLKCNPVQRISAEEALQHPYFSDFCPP

Sequence of Phosphatidylinositol 4,5-bisphosphate 3-kinase catalytic subunit alpha isoform (Homo sapiens) (P42336 whole entry, canonical isoform): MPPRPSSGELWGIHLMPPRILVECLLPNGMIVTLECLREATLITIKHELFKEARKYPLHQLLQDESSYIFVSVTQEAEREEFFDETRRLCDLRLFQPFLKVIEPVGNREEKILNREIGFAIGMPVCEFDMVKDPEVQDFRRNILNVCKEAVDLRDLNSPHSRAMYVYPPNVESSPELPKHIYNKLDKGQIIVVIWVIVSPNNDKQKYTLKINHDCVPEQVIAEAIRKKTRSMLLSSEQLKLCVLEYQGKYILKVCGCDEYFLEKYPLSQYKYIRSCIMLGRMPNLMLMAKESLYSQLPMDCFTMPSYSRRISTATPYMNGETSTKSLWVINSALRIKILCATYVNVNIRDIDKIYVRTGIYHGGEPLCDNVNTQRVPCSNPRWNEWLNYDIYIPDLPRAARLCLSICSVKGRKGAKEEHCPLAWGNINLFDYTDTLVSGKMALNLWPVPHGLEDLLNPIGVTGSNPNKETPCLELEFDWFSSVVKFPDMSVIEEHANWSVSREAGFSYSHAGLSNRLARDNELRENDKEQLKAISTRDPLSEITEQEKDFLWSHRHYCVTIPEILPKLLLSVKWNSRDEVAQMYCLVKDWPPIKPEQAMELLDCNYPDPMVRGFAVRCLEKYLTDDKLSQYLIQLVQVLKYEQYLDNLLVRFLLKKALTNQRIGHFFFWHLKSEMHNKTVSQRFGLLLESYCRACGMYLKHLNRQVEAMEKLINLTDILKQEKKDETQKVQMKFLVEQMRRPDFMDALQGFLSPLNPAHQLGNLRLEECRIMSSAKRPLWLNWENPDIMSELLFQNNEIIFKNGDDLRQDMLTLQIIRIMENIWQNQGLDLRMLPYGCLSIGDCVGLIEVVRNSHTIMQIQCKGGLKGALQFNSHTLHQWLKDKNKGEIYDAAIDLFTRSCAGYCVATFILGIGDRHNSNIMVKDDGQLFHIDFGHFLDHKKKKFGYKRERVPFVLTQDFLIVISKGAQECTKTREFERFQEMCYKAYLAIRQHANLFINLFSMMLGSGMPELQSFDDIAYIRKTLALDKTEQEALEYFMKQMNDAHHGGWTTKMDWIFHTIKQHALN
Sequence of Atypical kinase COQ8A, mitochondrial (Homo sapiens) (Q8NI60 163-647 limits assumed): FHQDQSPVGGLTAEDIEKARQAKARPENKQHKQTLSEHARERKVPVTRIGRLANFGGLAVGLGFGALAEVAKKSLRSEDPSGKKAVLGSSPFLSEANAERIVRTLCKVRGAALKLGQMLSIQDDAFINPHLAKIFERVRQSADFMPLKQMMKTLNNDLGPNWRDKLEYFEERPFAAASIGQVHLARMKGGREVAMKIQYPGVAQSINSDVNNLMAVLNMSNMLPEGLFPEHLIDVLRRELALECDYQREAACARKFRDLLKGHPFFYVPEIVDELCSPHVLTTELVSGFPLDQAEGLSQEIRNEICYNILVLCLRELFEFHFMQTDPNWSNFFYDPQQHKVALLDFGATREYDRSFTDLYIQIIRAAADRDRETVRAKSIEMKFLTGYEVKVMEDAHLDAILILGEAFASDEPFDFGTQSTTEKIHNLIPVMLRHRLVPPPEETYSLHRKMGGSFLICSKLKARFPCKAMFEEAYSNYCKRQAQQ
Sequence of Serine/threonine-protein kinase 38 (Homo sapiens) (Q15208 2-465 limits assumed): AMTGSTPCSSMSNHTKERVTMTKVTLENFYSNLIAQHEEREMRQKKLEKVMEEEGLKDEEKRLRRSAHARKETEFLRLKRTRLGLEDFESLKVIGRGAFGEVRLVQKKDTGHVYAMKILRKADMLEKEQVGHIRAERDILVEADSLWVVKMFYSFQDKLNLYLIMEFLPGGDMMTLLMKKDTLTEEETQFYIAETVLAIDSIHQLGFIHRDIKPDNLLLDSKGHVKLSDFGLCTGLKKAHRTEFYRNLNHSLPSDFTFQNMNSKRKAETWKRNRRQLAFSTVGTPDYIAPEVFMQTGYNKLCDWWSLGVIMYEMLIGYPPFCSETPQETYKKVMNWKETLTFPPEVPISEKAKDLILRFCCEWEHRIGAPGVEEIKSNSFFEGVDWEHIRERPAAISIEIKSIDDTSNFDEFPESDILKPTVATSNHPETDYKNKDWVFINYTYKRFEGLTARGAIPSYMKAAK
Sequence of Serine/threonine-protein kinase pim-2 (Homo sapiens) (Q9P1W9 whole entry, looked up): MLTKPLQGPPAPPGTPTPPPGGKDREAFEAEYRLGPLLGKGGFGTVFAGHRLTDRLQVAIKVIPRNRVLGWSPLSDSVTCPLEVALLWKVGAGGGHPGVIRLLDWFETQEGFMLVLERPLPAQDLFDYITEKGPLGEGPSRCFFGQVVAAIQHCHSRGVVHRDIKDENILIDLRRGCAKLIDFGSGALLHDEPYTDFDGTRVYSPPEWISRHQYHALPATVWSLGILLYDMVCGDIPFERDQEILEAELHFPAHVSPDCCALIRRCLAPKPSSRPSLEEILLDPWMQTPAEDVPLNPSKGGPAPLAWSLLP
Sequence of Protein-tyrosine kinase 6 (Homo sapiens) (Q13882 whole entry, looked up): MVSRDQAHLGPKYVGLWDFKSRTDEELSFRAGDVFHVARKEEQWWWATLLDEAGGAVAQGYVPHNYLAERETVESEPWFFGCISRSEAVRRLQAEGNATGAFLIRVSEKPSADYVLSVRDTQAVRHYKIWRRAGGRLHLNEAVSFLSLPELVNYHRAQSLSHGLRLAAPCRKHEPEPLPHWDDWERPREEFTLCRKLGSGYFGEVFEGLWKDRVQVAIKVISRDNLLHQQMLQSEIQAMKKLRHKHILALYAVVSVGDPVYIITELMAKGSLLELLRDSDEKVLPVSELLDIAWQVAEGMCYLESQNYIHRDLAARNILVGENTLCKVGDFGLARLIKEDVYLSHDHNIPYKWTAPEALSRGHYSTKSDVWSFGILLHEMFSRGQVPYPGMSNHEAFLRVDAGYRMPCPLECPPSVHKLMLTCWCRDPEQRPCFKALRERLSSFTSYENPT
Sequence of Calcium/calmodulin-dependent protein kinase type II subunit alpha (Homo sapiens) (Q9UQM7 whole entry): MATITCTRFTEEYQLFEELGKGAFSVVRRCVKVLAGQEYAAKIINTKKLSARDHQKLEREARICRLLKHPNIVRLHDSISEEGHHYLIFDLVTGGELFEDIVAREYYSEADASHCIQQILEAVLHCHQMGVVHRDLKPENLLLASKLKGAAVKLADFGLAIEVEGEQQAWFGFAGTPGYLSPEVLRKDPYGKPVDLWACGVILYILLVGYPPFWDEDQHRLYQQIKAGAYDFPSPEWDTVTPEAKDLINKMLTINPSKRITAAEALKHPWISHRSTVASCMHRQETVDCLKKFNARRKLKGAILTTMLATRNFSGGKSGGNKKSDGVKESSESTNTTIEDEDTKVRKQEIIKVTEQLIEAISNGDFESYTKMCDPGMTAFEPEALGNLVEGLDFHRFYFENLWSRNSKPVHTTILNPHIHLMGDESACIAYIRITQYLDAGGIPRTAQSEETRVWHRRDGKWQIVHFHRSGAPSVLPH
Sequence of TGF-beta receptor type-2 (Homo sapiens) (P37173 whole entry): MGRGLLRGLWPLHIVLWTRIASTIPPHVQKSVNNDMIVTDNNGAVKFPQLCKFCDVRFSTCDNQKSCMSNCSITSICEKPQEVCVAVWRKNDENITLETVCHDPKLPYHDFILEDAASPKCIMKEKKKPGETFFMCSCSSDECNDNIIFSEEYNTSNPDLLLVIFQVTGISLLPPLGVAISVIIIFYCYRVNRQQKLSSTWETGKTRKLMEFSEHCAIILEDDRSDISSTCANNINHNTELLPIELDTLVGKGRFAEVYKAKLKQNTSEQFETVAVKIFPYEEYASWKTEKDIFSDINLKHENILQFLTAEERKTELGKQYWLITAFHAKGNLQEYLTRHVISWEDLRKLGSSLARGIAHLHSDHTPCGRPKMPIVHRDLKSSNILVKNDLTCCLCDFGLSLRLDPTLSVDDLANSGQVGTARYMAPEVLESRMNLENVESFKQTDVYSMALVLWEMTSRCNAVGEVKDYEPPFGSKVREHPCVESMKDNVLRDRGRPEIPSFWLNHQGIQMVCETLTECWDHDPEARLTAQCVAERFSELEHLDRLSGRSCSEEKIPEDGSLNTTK
Sequence of MAP kinase-interacting serine/threonine-protein kinase 2 (Homo sapiens) (Q9HBH9 whole entry, looked up): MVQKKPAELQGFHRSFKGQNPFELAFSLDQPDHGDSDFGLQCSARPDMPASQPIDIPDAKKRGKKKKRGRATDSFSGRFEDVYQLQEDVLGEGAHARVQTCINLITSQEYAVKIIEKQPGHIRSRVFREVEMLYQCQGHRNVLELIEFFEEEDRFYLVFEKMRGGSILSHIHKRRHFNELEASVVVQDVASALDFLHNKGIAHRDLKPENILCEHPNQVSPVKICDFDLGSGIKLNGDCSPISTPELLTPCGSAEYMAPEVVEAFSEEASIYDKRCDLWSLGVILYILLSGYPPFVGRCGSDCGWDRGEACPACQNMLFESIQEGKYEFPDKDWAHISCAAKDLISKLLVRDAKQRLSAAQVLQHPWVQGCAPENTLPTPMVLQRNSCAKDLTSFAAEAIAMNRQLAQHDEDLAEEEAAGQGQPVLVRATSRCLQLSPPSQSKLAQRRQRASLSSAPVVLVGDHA
Sequence of Serine/threonine-protein kinase 16 (Homo sapiens) (O75716 whole entry): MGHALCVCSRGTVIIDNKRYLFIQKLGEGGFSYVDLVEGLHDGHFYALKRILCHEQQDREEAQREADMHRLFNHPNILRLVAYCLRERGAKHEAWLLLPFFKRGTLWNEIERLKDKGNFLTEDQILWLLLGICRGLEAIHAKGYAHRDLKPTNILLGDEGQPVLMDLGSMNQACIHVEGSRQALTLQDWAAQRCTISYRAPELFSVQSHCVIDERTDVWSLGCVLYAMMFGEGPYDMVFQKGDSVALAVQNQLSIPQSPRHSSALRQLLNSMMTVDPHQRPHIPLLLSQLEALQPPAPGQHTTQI

SMILES: COc1cc2ncnc(N[C@H](C)c3cccc4ccccc34)c2cc1OC
- Activity [1]: 97%
- Activity [2]: 91%
- Activity [3]: 88%
- Activity [4]: 93%
- Activity [5]: 89%
- Activity [6]: 73%
- Activity [7]: 80%
- Activity [8]: 66%
- Activity [9]: 100%
- Activity [10]: 64%
- Activity [11]: 93%
- Activity [12]: 80%
- Activity [13]: 96%
- Activity [14]: 88%
- Activity [15]: 83%
